# pIC50: −log10 of the molar value.
# Tests used:
# Assay in all cases: cells
# Format in all cases: functional, cell-based
# Conditions in all cases: Homo sapiens
# HL-60 = test system: HL-60;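 also: growth inhibition of human HL-60 cells, read out with a cell viability assay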
# Description: SANGER: Inhibition of human HL-60 cell growth in a cell viability assay.
# MMAC-SF = test system: MMAC-SF;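 also: growth inhibition of human MMAC-SF cells, read out with a cell viability assay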
# Description: SANGER: Inhibition of human MMAC-SF cell growth in a cell viability assay.
# OVCAR-5 = test system: OVCAR-5;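 also: growth inhibition of human OVCAR-5 cells, read out with a cell viability assay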
# Description: SANGER: Inhibition of human OVCAR-5 cell growth in a cell viability assay.
# KYSE-410 = test system: KYSE-410;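 also: growth inhibition of KYSE-410 cells, measured through a cell viability readout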
# Description: SANGER: Inhibition of human KYSE-410 cell growth in a cell viability assay.
# A101D = test system: A101D;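 also: growth inhibition of the cell line, measured with a viability assay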
# Description: SANGER: Inhibition of human A101D cell growth in a cell viability assay.
# KM-H2 = test system: KM-H2;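 also: growth inhibition of KM-H2 cells, read out by a cell viability assay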
# Description: SANGER: Inhibition of human KM-H2 cell growth in a cell viability assay.
# EM-2 = test system: EM-2;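 also: growth inhibition of EM-2 cells, read out with a cell viability assay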
# Description: SANGER: Inhibition of human EM-2 cell growth in a cell viability assay.
# KNS-81-FD = test system: KNS-81-FD;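 also: growth inhibition of KNS-81-FD cells, read out with a cell viability assay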
# Description: SANGER: Inhibition of human KNS-81-FD cell growth in a cell viability assay.
# VA-ES-BJ = test system: VA-ES-BJ;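 also: growth inhibition of the VA-ES-BJ cell line, read out by a cell viability assay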
# Description: SANGER: Inhibition of human VA-ES-BJ cell growth in a cell viability assay.
# D-263MG = test system: D-263MG
# Description: SANGER: Inhibition of human D-263MG cell growth in a cell viability assay.
# NCI-H1650 = test system: NCI-H1650;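 also: growth inhibition of human NCI-H1650 cells measured by a cell viability assay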
# Description: SANGER: Inhibition of human NCI-H1650 cell growth in a cell viability assay.
# UACC-257 = test system: UACC-257
# Description: SANGER: Inhibition of human UACC-257 cell growth in a cell viability assay.
# COLO-320-HSR = test system: COLO-320-HSR;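 also: growth inhibition of COLO-320-HSR cells, determined with a cell viability assay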
# Description: SANGER: Inhibition of human COLO-320-HSR cell growth in a cell viability assay.
# NCI-H2170 = test system: NCI-H2170;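 also: cell viability assay measuring growth inhibition of human NCI-H2170 cancer cells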
# Description: SANGER: Inhibition of human NCI-H2170 cell growth in a cell viability assay.
# L-363 = test system: L-363
# Description: SANGER: Inhibition of human L-363 cell growth in a cell viability assay.
# NB10 = test system: NB10;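 also: growth inhibition of NB10 cells, read out by a cell viability assay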
# Description: SANGER: Inhibition of human NB10 cell growth in a cell viability assay.
# IST-MEL1 = test system: IST-MEL1;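 also: growth inhibition of the cell line, read out with a cell viability assay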
# Description: SANGER: Inhibition of human IST-MEL1 cell growth in a cell viability assay.
# GOTO = test system: GOTO;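 also: growth inhibition of GOTO cells, read out by a cell viability assay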
# Description: SANGER: Inhibition of human GOTO cell growth in a cell viability assay.
# SJSA-1 = test system: SJSA-1;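 also: growth inhibition of human SJSA-1 cells, read out through a cell viability measurement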
# Description: SANGER: Inhibition of human SJSA-1 cell growth in a cell viability assay.
# COR-L23 = test system: COR-L23;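 also: cell viability assay measuring how strongly compounds suppress growth of COR-L23 cells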
# Description: SANGER: Inhibition of human COR-L23 cell growth in a cell viability assay.
# COLO-800 = test system: COLO-800;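 also: growth inhibition of COLO-800 cells, read out with a cell viability assay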
# Description: SANGER: Inhibition of human COLO-800 cell growth in a cell viability assay.
# A2780 = test system: A2780;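 also: growth inhibition of A2780 cells, read out with a cell viability assay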
# Description: SANGER: Inhibition of human A2780 cell growth in a cell viability assay.
# LS-123 = test system: LS-123
# Description: SANGER: Inhibition of human LS-123 cell growth in a cell viability assay.
# GT3TKB = test system: GT3TKB;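 also: growth inhibition of the cell line, read out with a cell viability assay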
# Description: SANGER: Inhibition of human GT3TKB cell growth in a cell viability assay.
# SNU-5 = test system: SNU-5;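 also: cell viability readout used to measure growth inhibition in human NCI-SNU-5 cells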
# Description: SANGER: Inhibition of human NCI-SNU-5 cell growth in a cell viability assay.
# NTERA-2-cl-D1 = test system: NTERA-2-cl-D1;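 also: inhibition of cell growth, measured with a cell viability assay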
# Description: SANGER: Inhibition of human NTERA-S-cl-D1 cell growth in a cell viability assay.
# NCI-H322M = test system: NCI-H322M;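 also: cell viability assay measuring inhibition of growth of human NCI-H322M cells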
# Description: SANGER: Inhibition of human NCI-H322M cell growth in a cell viability assay.
# BT-474 = test system: BT-474
# Description: SANGER: Inhibition of human BT-474 cell growth in a cell viability assay.
# LB2241-RCC = test system: LB2241-RCC;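 also: cell viability assay measuring how strongly the cultured human renal carcinoma line is prevented from growing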
# Description: SANGER: Inhibition of human LB2241-RCC cell growth in a cell viability assay.
# no-11 = test system: no-11;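 also: growth inhibition of human NO-11 cells, read out with a cell viability assay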
# Description: SANGER: Inhibition of human no-11 cell growth in a cell viability assay.
# DU-4475 = test system: DU-4475
# Description: SANGER: Inhibition of human DU-4475 cell growth in a cell viability assay.
# SF-539 = test system: SF-539;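 also: Read-out is a cell viability assay, with IC50 reflecting inhibition of cell growth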
# Description: SANGER: Inhibition of human SF539 cell growth in a cell viability assay.
# MN-60 = test system: MN-60;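 also: growth inhibition of the MN-60 cell line, determined with a cell viability assay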
# Description: SANGER: Inhibition of human MN-60 cell growth in a cell viability assay.
# EW-18 = test system: EW-18;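 also: growth inhibition of EW-18 cells, read out by a cell viability assay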
# Description: SANGER: Inhibition of human EW-18 cell growth in a cell viability assay.
# NB5 = test system: NB5;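 also: growth inhibition of NB5 cells, read out as cell viability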
# Description: SANGER: Inhibition of human NB5 cell growth in a cell viability assay.
# EW-11 = test system: EW-11;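 also: growth inhibition of human EW-11 cells, measured with a cell viability assay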
# Description: SANGER: Inhibition of human EW-11 cell growth in a cell viability assay.
# SK-OV-3 = test system: SK-OV-3;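 also: growth inhibition of SK-OV-3 human cells, read out with a cell viability assay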
# Description: SANGER: Inhibition of human SK-OV-3 cell growth in a cell viability assay.
# KNS-42 = test system: KNS-42;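 also: growth inhibition of KNS-42 cells, read out with a cell viability assay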
# Description: SANGER: Inhibition of human KNS-42 cell growth in a cell viability assay.
# SH-4 = test system: SH-4;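 also: growth inhibition of SH-4 cells, read out with a cell viability assay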
# Description: SANGER: Inhibition of human SH-4 cell growth in a cell viability assay.
# TE-10 = test system: TE-10;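 also: growth inhibition of TE-10 cells, measured by a cell viability assay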
# Description: SANGER: Inhibition of human TE-10 cell growth in a cell viability assay.
# RMG-I = test system: RMG-I;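 also: growth inhibition of human RMG-I cells, read out with a cell viability assay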
# Description: SANGER: Inhibition of human RMG-I cell growth in a cell viability assay.
# ALL-PO = test system: ALL-PO;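 also: growth inhibition of ALL-PO cells, read out by a cell viability assay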
# Description: SANGER: Inhibition of human ALL-PO cell growth in a cell viability assay.
# PSN1 = test system: PSN1;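 also: suppression of growth of human PSN1 cells, read out by a cell viability assay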
# Description: SANGER: Inhibition of human PSN1 cell growth in a cell viability assay.
# SF-268 = test system: SF-268;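 also: growth inhibition of SF-268 cells determined with a cell viability assay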
# Description: SANGER: Inhibition of human SF268 cell growth in a cell viability assay.
# HT = test system: HT
# Description: SANGER: Inhibition of human HT cell growth in a cell viability assay.
# ML-2 = test system: ML-2;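 also: growth inhibition of ML-2 cells, measured with a cell viability readout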
# Description: SANGER: Inhibition of human ML-2 cell growth in a cell viability assay.
# RXF 393 = test system: RXF 393;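 also: growth inhibition of human RXF 393 cells, read out with a cell viability assay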
# Description: SANGER: Inhibition of human RXF393 cell growth in a cell viability assay.
# AM-38 = test system: AM-38;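 also: growth inhibition of AM-38 cells of human origin, read out by a cell viability assay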
# Description: SANGER: Inhibition of human AM-38 cell growth in a cell viability assay.
# CP66-MEL = test system: CP66-MEL;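 also: growth inhibition of CP66-MEL cells determined in a cell viability assay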
# Description: SANGER: Inhibition of human CP66-MEL cell growth in a cell viability assay.
# P12-Ichikawa = test system: P12-Ichikawa
# GI-ME-N = test system: GI-ME-N;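 also: growth inhibition of human GI-ME-N cells, read out with a cell viability assay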
# Description: SANGER: Inhibition of human GI-ME-N cell growth in a cell viability assay.
# SK-MEL-2 = test system: SK-MEL-2;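 also: growth inhibition of human SK-MEL-2 cells measured with a cell viability assay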
# Description: SANGER: Inhibition of human SK-MEL-2 cell growth in a cell viability assay.
# MEG-01 = test system: MEG-01;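 also: growth inhibition of MEG-01 cells, read out by a cell viability assay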
# Description: SANGER: Inhibition of human MEG-01 cell growth in a cell viability assay.
# IST-MES1 = test system: IST-MES1;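 also: growth inhibition of IST-MES1 cells, measured with a cell viability assay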
# Description: SANGER: Inhibition of human IST-MES1 cell growth in a cell viability assay.
# Becker = test system: Becker;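 also: growth inhibition of Becker cells, read out with a cell viability assay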
# Description: SANGER: Inhibition of human Becker cell growth in a cell viability assay.
# KE-37 = test system: KE-37;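 also: growth inhibition of KE-37 cells, read out with a cell viability assay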
# Description: SANGER: Inhibition of human KE-37 cell growth in a cell viability assay.
# BE-13 = test system: BE-13;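 also: growth inhibition of human BE-13 cells, measured with a cell viability assay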
# Description: SANGER: Inhibition of human BE-13 cell growth in a cell viability assay.
# NKM-1 = test system: NKM-1
# Description: SANGER: Inhibition of human NKM-1 cell growth in a cell viability assay.
# L-540 = test system: L-540
# Description: SANGER: Inhibition of human L-540 cell growth in a cell viability assay.
# LB373-MEL-D = test system: LB373-MEL-D
# Description: SANGER: Inhibition of human LB373-MEL-D cell growth in a cell viability assay.
# ES7 = test system: ES7
# Description: SANGER: Inhibition of human ES7 cell growth in a cell viability assay.
# K562 = test system: K562
# Description: SANGER: Inhibition of human K-562 cell growth in a cell viability assay.
# NCI-H1299 = test system: NCI-H1299
# Description: SANGER: Inhibition of human NCI-H1299 cell growth in a cell viability assay.
# ES4 = test system: ES4
# Description: SANGER: Inhibition of human ES4 cell growth in a cell viability assay.
# NCI-H446 = test system: NCI-H446
# Description: SANGER: Inhibition of human NCI-H446 cell growth in a cell viability assay.
# A2058 = test system: A2058
# Description: SANGER: Inhibition of human A2058 cell growth in a cell viability assay.
smiles,measurement,setting,value
C/C(O)=C(\C#N)C(=O)Nc1cc(Br)ccc1Br,pIC50,HL-60,< 4.80
same,pIC50,MMAC-SF,< 4.80
same,pIC50,OVCAR-5,< 4.80
same,pIC50,KYSE-410,< 4.80
same,pIC50,A101D,< 4.80
same,pIC50,KM-H2,< 4.80
same,pIC50,EM-2,< 4.80
same,pIC50,KNS-81-FD,< 4.80
same,pIC50,VA-ES-BJ,< 4.80
same,pIC50,D-263MG,< 4.80
same,pIC50,NCI-H1650,< 4.80
same,pIC50,UACC-257,< 4.80
same,pIC50,COLO-320-HSR,< 4.80
same,pIC50,NCI-H2170,< 4.80
same,pIC50,L-363,< 4.80
same,pIC50,NB10,< 4.80
same,pIC50,IST-MEL1,< 4.80
same,pIC50,GOTO,< 4.80
same,pIC50,SJSA-1,< 4.80
same,pIC50,COR-L23,< 4.80
same,pIC50,COLO-800,< 4.80
same,pIC50,A2780,< 4.80
same,pIC50,LS-123,< 4.80
same,pIC50,GT3TKB,< 4.80
same,pIC50,SNU-5,< 4.80
same,pIC50,NTERA-2-cl-D1,< 4.80
same,pIC50,NCI-H322M,< 4.80
same,pIC50,BT-474,< 4.80
same,pIC50,LB2241-RCC,< 4.80
same,pIC50,no-11,< 4.80
same,pIC50,DU-4475,< 4.80
same,pIC50,SF-539,< 4.80
same,pIC50,MN-60,< 4.80
same,pIC50,EW-18,< 4.80
same,pIC50,NB5,< 4.80
same,pIC50,EW-11,< 4.80
same,pIC50,SK-OV-3,< 4.80
same,pIC50,KNS-42,< 4.80
same,pIC50,SH-4,< 4.80
same,pIC50,TE-10,< 4.80
same,pIC50,RMG-I,< 4.80
same,pIC50,ALL-PO,< 4.80
same,pIC50,PSN1,< 4.80
same,pIC50,SF-268,< 4.80
same,pIC50,HT,< 4.80
same,pIC50,ML-2,< 4.80
same,pIC50,RXF 393,< 4.80
same,pIC50,AM-38,< 4.80
same,pIC50,CP66-MEL,< 4.80
same,pIC50,P12-Ichikawa,< 4.80
same,pIC50,GI-ME-N,< 4.80
same,pIC50,SK-MEL-2,< 4.80
same,pIC50,MEG-01,< 4.80
same,pIC50,IST-MES1,< 4.80
same,pIC50,Becker,< 4.80
same,pIC50,KE-37,< 4.80
same,pIC50,BE-13,< 4.80
same,pIC50,NKM-1,< 4.80
same,pIC50,L-540,< 4.80
same,pIC50,LB373-MEL-D,< 4.80
same,pIC50,ES7,< 4.80
same,pIC50,K562,< 4.80
same,pIC50,NCI-H1299,< 4.80
same,pIC50,ES4,< 4.80
same,pIC50,NCI-H446,< 4.80
same,pIC50,A2058,< 4.80
Cc1[nH]c(/C=C2\C(=O)Nc3ccc(S(=O)(=O)Cc4c(Cl)cccc4Cl)cc32)c(C)c1C(=O)N1CCC[C@@H]1CN1CCCC1 [PHA-665752],pIC50,HL-60,< 5.70
same,pIC50,MMAC-SF,< 5.70
same,pIC50,A101D,< 5.70
same,pIC50,KM-H2,< 5.70
same,pIC50,EM-2,< 5.70
same,pIC50,KNS-81-FD,< 5.70
same,pIC50,VA-ES-BJ,< 5.70
same,pIC50,D-263MG,< 5.70
same,pIC50,NCI-H1650,< 5.70
same,pIC50,UACC-257,< 5.70
same,pIC50,COLO-320-HSR,< 5.70
same,pIC50,L-363,< 5.70
same,pIC50,NB10,< 5.70
same,pIC50,IST-MEL1,< 5.70
same,pIC50,GOTO,< 5.70
same,pIC50,SJSA-1,< 5.70
same,pIC50,COLO-800,< 5.70
same,pIC50,LS-123,< 5.70
same,pIC50,GT3TKB,< 5.70
same,pIC50,SNU-5,6.91
same,pIC50,NTERA-2-cl-D1,< 5.70
same,pIC50,NCI-H322M,< 5.70
same,pIC50,BT-474,< 5.70
same,pIC50,LB2241-RCC,6.80
same,pIC50,no-11,< 5.70
same,pIC50,DU-4475,< 5.70
same,pIC50,SF-539,< 5.70
same,pIC50,MN-60,< 5.70
same,pIC50,EW-18,< 5.70
same,pIC50,NB5,< 5.70
same,pIC50,EW-11,< 5.70
same,pIC50,KNS-42,< 5.70
same,pIC50,SH-4,< 5.70
same,pIC50,TE-10,< 5.70
same,pIC50,ALL-PO,6.09
same,pIC50,PSN1,< 5.70
same,pIC50,SF-268,< 5.70
same,pIC50,HT,< 5.70
same,pIC50,ML-2,< 5.70
same,pIC50,RXF 393,< 5.70
same,pIC50,AM-38,< 5.70
same,pIC50,CP66-MEL,< 5.70
same,pIC50,GI-ME-N,< 5.70
same,pIC50,SK-MEL-2,< 5.70
same,pIC50,MEG-01,< 5.70
same,pIC50,IST-MES1,< 5.70
same,pIC50,Becker,< 5.70
same,pIC50,KE-37,< 5.70
same,pIC50,BE-13,< 5.70
same,pIC50,NKM-1,< 5.70
same,pIC50,L-540,< 5.70
same,pIC50,LB373-MEL-D,< 5.70
same,pIC50,ES7,< 5.70
same,pIC50,K562,< 5.70
same,pIC50,NCI-H1299,< 5.70
same,pIC50,ES4,< 5.70
same,pIC50,NCI-H446,< 5.70

# From ChEMBL document CHEMBL1201861, “Genomics of Drug Sensitity in Cancer screening data, Wellcome Trust Sanger Institute”
